Laboratory results from patent US20230389548A1, “MIXTURES OF PYRIMIDINES AS HERBICIDAL COMPOSITIONS” (SYNGENTA CROP PROTECTION AG, priority 2020, published 2023).

Assays:
Experiment in all cases: Post-emergence glasshouse spray test, visual percentage phytotoxicity after 13 days
Format in all cases: in vivo
[1] = system: Abutilon threophrasti (ABUTH); conditions: B1
Protocol: (§1) Seeds of Setaria faberi (SETFA), Echinochloa crus-galli (ECHCG), Digitaria sanguinalis (DIGSA), Lolium perenne (LOLPE), Alopecurus myosuroides (ALOMY), Chenopodium album (CHEAL), Ipomoea hederacea (IPOHE), Stellaria media (STEME), Abutilon threophrasti (ABUTH), Amaranthus retroflexus (AMARE) were sown in standard sterilised soil in pots. After cultivation for 8 days under controlled conditions in a glasshouse (at 24/19° C., day/night; 16 hours light; no humidity control), the plants were sprayed at 500 l/Ha with an aqueous spray solution derived from the formulation of the technical active ingredients in a small amount of acetone and a solvent and emulsifier mixture referred to as IF50 (11.12% Emulsogen EL360™+44.44% N-methylpyrrolidone+44.44% Dowanol DPM glycol ether), to create a 50 g/l solution which was then diluted using 0.2% Genapol XO80 (CAS Number: 9043-30-5) as diluent to give the desired final dose of test compound.
(§2) Where active ingredients were applied as mixtures, aqueous spray solutions were prepared as above, containing both active ingredients.
(§3) The test plants were then grown under controlled conditions in a glasshouse (at 24/18° C., day/night; 15 hours light; 50% humidity) and watered twice daily. After 13 days, the test was evaluated visually for percentage phytotoxicity to the plants (where 100=total damage to plant; 0=no damage to plant; and NC=not captured) when compared to control untreated plants. Two to four replicates were applied for each treatment in a randomised block test design.
(§4) 22., E=X+Y−(X*Y/100), where
(§5) X=average percent phytotoxicity of herbicide A when applied at a certain rate Y=average percent phytotoxicity using herbicide B when applied at a certain rate E=the expected effect of the mixture of herbicides A and B as calculated from the Colby formula.

[2] = system: Alopecurus myosuroides (ALOMY); conditions: B1
Protocol: as §1, §2, §3, §4, §5

[3] = system: Amaranthus retroflexus (AMARE); conditions: B1
Protocol: as §1, §2, §3, §4, §5

[4] = system: Chenopodium album (CHEAL); conditions: B1
Protocol: as §1, §2, §3, §4, §5

[5] = system: Digitaria sanguinalis (DIGSA); conditions: for DIGSA percentage phytotoxicity: B1
Protocol: as §1, §2, §3, §4, §5

[6] = system: Ipomoea hederacea (IPOHE); conditions: for IPOHE percentage phytotoxicity: B1
Protocol: as §1, §2, §3, §4, §5

[7] = system: Lolium perenne (LOLPE); conditions: for LOLPE percentage phytotoxicity: B1
Protocol: as §1, §2, §3, §4, §5

[8] = system: Setaria faberi (SETFA); conditions: for SETFA percentage phytotoxicity: B1; for Observed phytotoxicity SETFA: B2.6.1
Protocol: as §1, §2, §3, §4, §5

[9] = system: Stellaria media (STEME); conditions: for STEME percentage phytotoxicity: B1
Protocol: as §1, §2, §3, §4, §5

Nc1c(F)c(-c2ccc3cc[nH]c3c2F)nc(C(=O)O)c1Cl [B-VI]
ABUTH percentage phytotoxicity ([1]; 0.625 g/ha post-emergence): 38% | ABUTH percentage phytotoxicity ([1]; 1.25 g/ha post-emergence): 55% | ABUTH percentage phytotoxicity ([1]; 2.5 g/ha post-emergence): 73% | ABUTH percentage phytotoxicity ([1]; 5 g/ha post-emergence): 78% | ABUTH percentage phytotoxicity ([1]; 10 g/ha post-emergence): 78% | ALOMY percentage phytotoxicity ([2]; 0.625 g/ha post-emergence): 0% | ALOMY percentage phytotoxicity ([2]; 1.25 g/ha post-emergence): 0% | ALOMY percentage phytotoxicity ([2]; 2.5 g/ha post-emergence): 0% | ALOMY percentage phytotoxicity ([2]; 5 g/ha post-emergence): 33% | ALOMY percentage phytotoxicity ([2]; 10 g/ha post-emergence): 30% | AMARE percentage phytotoxicity ([3]; 0.625 g/ha post-emergence): 58% | AMARE percentage phytotoxicity ([3]; 1.25 g/ha post-emergence): 65% | AMARE percentage phytotoxicity ([3]; 2.5 g/ha post-emergence): 73% | AMARE percentage phytotoxicity ([3]; 5 g/ha post-emergence): 95% | AMARE percentage phytotoxicity ([3]; 10 g/ha post-emergence): 90% | CHEAL percentage phytotoxicity ([4]; 0.625 g/ha post-emergence): 58% | CHEAL percentage phytotoxicity ([4]; 1.25 g/ha post-emergence): 73% | CHEAL percentage phytotoxicity ([4]; 2.5 g/ha post-emergence): 75% | CHEAL percentage phytotoxicity ([4]; 5 g/ha post-emergence): 94% | CHEAL percentage phytotoxicity ([4]; 10 g/ha post-emergence): 84% | DIGSA percentage phytotoxicity ([5]; 0.625 g/ha post-emergence): 0% | DIGSA percentage phytotoxicity ([5]; 1.25 g/ha post-emergence): 0% | DIGSA percentage phytotoxicity ([5]; 2.5 g/ha post-emergence): 0% | DIGSA percentage phytotoxicity ([5]; 5 g/ha post-emergence): 8% | DIGSA percentage phytotoxicity ([5]; 10 g/ha post-emergence): 43% | Observed phytotoxicity DIGSA ([5]; B2.6.2, 0.625 g/ha post-emergence): 0% | Observed phytotoxicity DIGSA ([5]; B2.6.2, 1.25 g/ha post-emergence): 0% | Observed phytotoxicity DIGSA ([5]; B2.6.2, 5 g/ha post-emergence): 8% | IPOHE percentage phytotoxicity ([6]; 0.625 g/ha post-emergence): 13% | IPOHE percentage phytotoxicity ([6]; 1.25 g/ha post-emergence): 35% | IPOHE percentage phytotoxicity ([6]; 2.5 g/ha post-emergence): 38% | IPOHE percentage phytotoxicity ([6]; 5 g/ha post-emergence): 48% | IPOHE percentage phytotoxicity ([6]; 10 g/ha post-emergence): 50% | Observed phytotoxicity IPOHE ([6]; B2.6.4, 2.5 g/ha post-emergence): 38% | LOLPE percentage phytotoxicity ([7]; 0.625 g/ha post-emergence): 0% | LOLPE percentage phytotoxicity ([7]; 1.25 g/ha post-emergence): 0% | LOLPE percentage phytotoxicity ([7]; 2.5 g/ha post-emergence): 0% | LOLPE percentage phytotoxicity ([7]; 5 g/ha post-emergence): 8% | LOLPE percentage phytotoxicity ([7]; 10 g/ha post-emergence): 8% | Observed phytotoxicity LOLPE ([7]; B2.6.3, 5 g/ha post-emergence): 8% | SETFA percentage phytotoxicity ([8]; 0.625 g/ha post-emergence): 0% | SETFA percentage phytotoxicity ([8]; 1.25 g/ha post-emergence): 0% | SETFA percentage phytotoxicity ([8]; 2.5 g/ha post-emergence): 0% | SETFA percentage phytotoxicity ([8]; 5 g/ha post-emergence): 48% | SETFA percentage phytotoxicity ([8]; 10 g/ha post-emergence): 70% | Observed phytotoxicity SETFA ([8]; 0.625 g/ha post-emergence): 0% | Observed phytotoxicity SETFA ([8]; 1.25 g/ha post-emergence): 0% | STEME percentage phytotoxicity ([9]; 0.625 g/ha post-emergence): 78% | STEME percentage phytotoxicity ([9]; 1.25 g/ha post-emergence): 50% | STEME percentage phytotoxicity ([9]; 2.5 g/ha post-emergence): 65% | STEME percentage phytotoxicity ([9]; 5 g/ha post-emergence): 98% | STEME percentage phytotoxicity ([9]; 10 g/ha post-emergence): 90% | Observed phytotoxicity STEME ([9]; B2.6.5, 1.25 g/ha post-emergence): 50%

COc1c(Cl)ccc(-c2nc(C(=O)OCc3ccccc3)c(Cl)c(N)c2F)c1F [B-I]
ABUTH percentage phytotoxicity ([1]; 0.625 g/ha post-emergence): 75% | ABUTH percentage phytotoxicity ([1]; 1.25 g/ha post-emergence): 83% | ABUTH percentage phytotoxicity ([1]; 2.5 g/ha post-emergence): 80% | ABUTH percentage phytotoxicity ([1]; 5 g/ha post-emergence): 80% | ABUTH percentage phytotoxicity ([1]; 10 g/ha post-emergence): 85% | ALOMY percentage phytotoxicity ([2]; 0.625 g/ha post-emergence): 0% | ALOMY percentage phytotoxicity ([2]; 1.25 g/ha post-emergence): 0% | ALOMY percentage phytotoxicity ([2]; 2.5 g/ha post-emergence): 0% | ALOMY percentage phytotoxicity ([2]; 5 g/ha post-emergence): 0% | ALOMY percentage phytotoxicity ([2]; 10 g/ha post-emergence): 3% | AMARE percentage phytotoxicity ([3]; 0.625 g/ha post-emergence): 53% | AMARE percentage phytotoxicity ([3]; 1.25 g/ha post-emergence): 58% | AMARE percentage phytotoxicity ([3]; 2.5 g/ha post-emergence): 65% | AMARE percentage phytotoxicity ([3]; 5 g/ha post-emergence): 58% | AMARE percentage phytotoxicity ([3]; 10 g/ha post-emergence): 70% | CHEAL percentage phytotoxicity ([4]; 0.625 g/ha post-emergence): 63% | CHEAL percentage phytotoxicity ([4]; 1.25 g/ha post-emergence): 63% | CHEAL percentage phytotoxicity ([4]; 2.5 g/ha post-emergence): 60% | CHEAL percentage phytotoxicity ([4]; 5 g/ha post-emergence): 70% | CHEAL percentage phytotoxicity ([4]; 10 g/ha post-emergence): 75% | DIGSA percentage phytotoxicity ([5]; 0.625 g/ha post-emergence): 0% | DIGSA percentage phytotoxicity ([5]; 1.25 g/ha post-emergence): 3% | DIGSA percentage phytotoxicity ([5]; 2.5 g/ha post-emergence): 5% | DIGSA percentage phytotoxicity ([5]; 5 g/ha post-emergence): 0% | DIGSA percentage phytotoxicity ([5]; 10 g/ha post-emergence): 10% | Observed phytotoxicity DIGSA ([5]; B2.5.1, 5 g/ha post-emergence): 0% | IPOHE percentage phytotoxicity ([6]; 0.625 g/ha post-emergence): 13% | IPOHE percentage phytotoxicity ([6]; 1.25 g/ha post-emergence): 33% | IPOHE percentage phytotoxicity ([6]; 2.5 g/ha post-emergence): 58% | IPOHE percentage phytotoxicity ([6]; 5 g/ha post-emergence): 55% | IPOHE percentage phytotoxicity ([6]; 10 g/ha post-emergence): 53% | LOLPE percentage phytotoxicity ([7]; 0.625 g/ha post-emergence): 0% | LOLPE percentage phytotoxicity ([7]; 1.25 g/ha post-emergence): 0% | LOLPE percentage phytotoxicity ([7]; 2.5 g/ha post-emergence): 0% | LOLPE percentage phytotoxicity ([7]; 5 g/ha post-emergence): 0% | LOLPE percentage phytotoxicity ([7]; 10 g/ha post-emergence): 5% | Observed phytotoxicity LOLPE ([7]; B2.5.2, 5 g/ha post-emergence): 0% | SETFA percentage phytotoxicity ([8]; 0.625 g/ha post-emergence): 0% | SETFA percentage phytotoxicity ([8]; 1.25 g/ha post-emergence): 0% | SETFA percentage phytotoxicity ([8]; 2.5 g/ha post-emergence): 5% | SETFA percentage phytotoxicity ([8]; 5 g/ha post-emergence): 3% | SETFA percentage phytotoxicity ([8]; 10 g/ha post-emergence): 20% | STEME percentage phytotoxicity ([9]; 0.625 g/ha post-emergence): 50% | STEME percentage phytotoxicity ([9]; 1.25 g/ha post-emergence): 58% | STEME percentage phytotoxicity ([9]; 2.5 g/ha post-emergence): 75% | STEME percentage phytotoxicity ([9]; 5 g/ha post-emergence): 70% | STEME percentage phytotoxicity ([9]; 10 g/ha post-emergence): 85%
